In BindingDB's records for doi:10.1021/bi7000505 (Wyeth Research, 2007):

Biological target: T1, Caspase-3 (Homo sapiens, UniProt P42574)
T1 sequence (P42574 whole entry): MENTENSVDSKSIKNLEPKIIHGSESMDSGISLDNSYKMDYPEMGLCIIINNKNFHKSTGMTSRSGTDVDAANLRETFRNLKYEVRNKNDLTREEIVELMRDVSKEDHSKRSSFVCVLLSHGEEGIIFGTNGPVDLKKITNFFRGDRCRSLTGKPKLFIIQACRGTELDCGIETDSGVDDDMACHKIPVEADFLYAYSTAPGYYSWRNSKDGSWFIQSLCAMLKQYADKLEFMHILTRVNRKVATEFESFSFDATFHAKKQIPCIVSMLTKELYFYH

| Ki [µM] | Structure (SMILES) |
| --- | --- |
| 0.011 | CN1C(=O)C(=O)c2cc(S(=O)(=O)N3CCC[C@H]3COc3ccccc3)ccc21 [(S)-1-Methyl-5-{1-[2-(phenoxymethyl)pyrrolidinyl]sulfonyl}isatin] |
| 0.0025 | O=C1C(=O)N(Cc2ccccc2)c2ccc(S(=O)(=O)N3CCC[C@H]3COc3ccccc3)cc21 [JMC522188 Compound 2] |
| 0.165 | O=C(O)C[C@H](NC(=O)[C@@H](c1ccccc1)n1cccc(NC(=O)c2ccc3ccccc3c2)c1=O)C(=O)COc1ccccc1 [(3S)-3-[(1R)-1-[3-(naphthalene-2-amido)-2-oxo-1,2-dihydropyridin-1-yl]-1-phenylacetamido]-4-oxo-5-phenoxypentanoic acid] |
| 0.0161 | O=C1Nc2ccc(S(=O)(=O)N3CCC[C@H]3COc3cccnc3)cc2C1=O [5-{[(2S)-2-[(pyridin-3-yloxy)methyl]pyrrolidine-1-]sulfonyl}-2,3-dihydro-1H-indole-2,3-dione] |
